The record followed here is patent US20240199605A1, “SMALL MOLECULAR INHIBITORS OF NF-kB INDUCING KINASE” (Janssen Pharmaceutica NV, priority 2019, published 2024).

The target of experiment [1] is recombinant human NF-kappaB-inducing kinase (NIK/MAP3K14) (Homo sapiens (Human), UniProt Q99558). The experiment can be described thus: Inhibition of auto-phosphorylation of recombinant human NIK/MAP3K14 (AlphaScreen). The conditions noted are these: NIK auto-phosphorylation, 5 μM ATP, 1 nM NIK, 2 h at 25° C.; average of values. The experiment is classed as biochemical. The method, then: Inhibition of auto-phosphorylation of recombinant human NF-kappaB-inducing kinase (NIK/MAP3K14) activity (AlphaScreen®)
Chain of recombinant human NF-kappaB-inducing kinase (NIK/MAP3K14) (Q99558 whole entry): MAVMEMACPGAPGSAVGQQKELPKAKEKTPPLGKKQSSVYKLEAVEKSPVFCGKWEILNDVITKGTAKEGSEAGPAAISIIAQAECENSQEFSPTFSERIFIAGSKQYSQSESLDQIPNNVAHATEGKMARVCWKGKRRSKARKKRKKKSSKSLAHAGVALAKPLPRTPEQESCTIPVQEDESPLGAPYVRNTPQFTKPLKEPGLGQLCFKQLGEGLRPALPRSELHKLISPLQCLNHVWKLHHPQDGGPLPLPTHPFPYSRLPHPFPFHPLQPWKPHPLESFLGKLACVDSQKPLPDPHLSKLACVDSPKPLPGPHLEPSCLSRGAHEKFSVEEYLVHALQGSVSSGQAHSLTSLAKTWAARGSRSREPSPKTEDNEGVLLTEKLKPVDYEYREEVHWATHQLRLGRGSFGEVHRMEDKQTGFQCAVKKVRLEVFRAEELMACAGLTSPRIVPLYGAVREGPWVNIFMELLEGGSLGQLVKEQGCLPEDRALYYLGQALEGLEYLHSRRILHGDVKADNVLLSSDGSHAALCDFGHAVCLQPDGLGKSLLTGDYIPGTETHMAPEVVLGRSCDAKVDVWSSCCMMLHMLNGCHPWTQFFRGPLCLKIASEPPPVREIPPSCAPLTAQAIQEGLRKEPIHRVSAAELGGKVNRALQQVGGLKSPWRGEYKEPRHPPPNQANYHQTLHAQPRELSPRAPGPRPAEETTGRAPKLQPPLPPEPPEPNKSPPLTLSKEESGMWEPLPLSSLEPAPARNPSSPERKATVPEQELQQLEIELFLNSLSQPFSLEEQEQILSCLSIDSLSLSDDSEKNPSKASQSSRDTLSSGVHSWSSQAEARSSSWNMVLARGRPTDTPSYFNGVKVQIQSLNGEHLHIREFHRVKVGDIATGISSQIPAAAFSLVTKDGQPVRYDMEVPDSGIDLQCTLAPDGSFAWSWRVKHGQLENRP
NIK/MAP3K14 auto-phosphorylation activity was measured using the AlphaScreen® (αscreen) format (Perkin Elmer). All compounds tested were dissolved in dimethyl sulfoxide (DMSO) and further dilutions were made in assay buffer. The final DMSO concentration was 0.7% (v/v) in assays. The assay buffer was 50 mM Tris pH 7.5 containing 1 mM EGTA (ethylene glycol tetraacetic acid), 1 mM DTT (dithiothreitol), 0.1 mM Na3VO4, 5 mM MgCl2, and 0.01% Tween® 20. The assays were carried out in 384 well Proxiplates (Perkin Elmer). The incubations consisted of the compound, 5 μM Adenosine-5′-triphosphate (ATP), and 1 nM NIK/MAP3K14. Incubations were initiated by the addition of GST-tagged NIK/MAP3K14 enzyme, carried out for 2 h at 25° C. and terminated by addition of stop buffer containing anti-phospho-IKK Ser176/180 antibody. Protein A Acceptor and Glutathione-Donor beads were added before reading using an EnVision® Multilabel Plate Reader (Perkin Elmer). […] IC50's were determined by fitting a sigmoidal curve to % inhibition of control versus Log10 compound concentration.

For experiment [2], the system named is p-IKKα levels in L363 (NIK translocated multiple myeloma) cells. The experiment in a line: Effect of compounds on p-IKKα levels in L363 cells (AlphaLISA SureFire Ultra). The conditions noted are these: Homo sapiens, L-363, 6 h, BAFF stimulated, MG132, 6 h, average of values, read-out: Assay 2 IC50. The experiment is classed as cell-based, human. The method, then:
Effect of Compounds on p-IKKα Levels in L363 (NIK Translocated Multiple Myeloma) Cells
All compounds tested were dissolved and serially diluted in DMSO, 1:3 dilution for 11 points in an Echo compatible plate. 100% DMSO was added to columns 12 and 24 of the plate to serve as high and low signal controls. This compound plate was used to spot 20 nL of compound or DMSO into a Greiner 384 well TC plate (781080). The final DMSO concentration was 0.3% (v/v) in cell assays. Human L363 cells (ATCC) were cultured in RPM11640 medium supplemented with GlutaMax, non-essential amino acids, sodium pyruvate and 10% fetal bovine serum. Cells were routinely maintained at densities of […] at 37° C. in a humidified 5% CO2 atmosphere incubator. Cells were passaged twice a week splitting back to obtain the low density. The day before the assay, cells were washed twice in HBSS (Hank's Balanced Salt Solution), resuspended in Dulbecco's Modified Eagle Medium (DMEM)+0.5% IgG and protease free BSA (Jackson Immuno Research Laboratories), +/−250 ng/ml recombinant human B-cell activating factor (BAFF/BLyS/TNFSF13B) and incubated overnight at 37° C. in a humidified 5% CO2 atmosphere (bulk stimulation with or without BAFF). The next day, the cell concentration was adjusted to 1×10^7 cells/ml in DMEM+/−250 ng/ml BAFF+/−10 μM MG132 and plated at 10 μl/well into compound or DMSO spotted 384 well TC plates. Seeded cells were incubated at 37° C. in a humidified 5% CO2 atmosphere for 6 h. After 6 h, the plates were removed from the incubator and cell lysis was achieved by the addition of 2.5 μl 5× lysis buffer containing protease and phosphatase inhibitors, followed by shaking on a plate shaker at room temperature for 15 min. At the end of this incubation, lysed cells were sequentially treated and incubated with acceptor and donor bead mixes according to the manufacturer's protocol for a 1 plate/2-incubation suspension cell assay (AlphaLISA SureFire Ultra p-IKKa (Ser 176/180) Assay Kit (Perkin Elmer). Plates were read using an EnVision® Multilabel Plate Reader (Perkin Elmer). Within an experiment, a concentration response curve for each compound was run in duplicate. The signal obtained in the test wells was normalized using high signal (BAFF stimulated cells, DMSO, MG132) and low signal (unstimulated cells, DMSO) controls. To determine the IC50, a sigmoidal curve was fitted to the plot of % inhibition versus Log10 compound concentration.

For `Cc1nc(N)c2nc(-c3cccc(C#CC4(O)CCCc5cccnc54)c3)ccc2n1` (racemic) [Example 165, racemic-8-((3-(4-Amino-2-methylpyrido[3,2-d]pyrimidin-6-yl)phenyl)ethynyl)-5,6,7,8-tetrahydroquinolin-8-ol], the IC50 in experiment [1] was 120 nM; in experiment [2], more than 5000 nM.
In the case of `Nc1nccc2cnc(-c3cccc(C#CC4(O)CCc5cccnc54)c3)nc12` (stereo in doubt) [Example 46, (S)-7-[2-[3-(8-Aminopyrido[3,4-d]pyrimidin-2-yl)phenyl]ethynyl]-5,6-dihydrocyclopenta[b]pyridin-7-ol], in experiment [1], the IC50 is 2030 nM.
Consider `[2H]c1nc(N)c2nc(-c3cccc(C#C[C@]4(O)CCN(C)C4=O)c3)ccc2n1` [Example 8, (R)-3-((3-(4-Aminopyrido[3,2-d]pyrimidin-6-yl-2-d)phenyl)ethynyl)-3-hydroxy-1-methylpyrrolidin-2-one], for which, in experiment [2], the IC50 was determined as 3.3 nM.
The same measure, in the same setting: the value for `[2H]c1nc(N)c2nc(-c3cccc(C#C[C@@]4(O)CCN(C)C4=O)c3)ccc2n1` [Example 9, (S)-3-((3-(4-Aminopyrido[3,2-d]pyrimidin-6-yl-2-d)phenyl)ethynyl)-3-hydroxy-1-methylpyrrolidin-2-one] was 670 nM; that for `CN1CC[C@@](O)(C#Cc2cccc(-c3ccc4ncnc(N)c4n3)c2)C1=O` [Example 12, (R)-3-((3-(4-Aminopyrido[3,2-d]pyrimidin-6-yl)phenyl)ethynyl)-3-hydroxy-1-methylpyrrolidin-2-one] was 3 nM.
`Cc1cc2cnc(-c3cccc(C#C[C@]4(O)CCN(C)C4=O)c3)nc2c(N)n1` [Example 44, (R)-3-((3-(8-Amino-6-methylpyrido[3,4-d]pyrimidin-2-yl)phenyl)ethynyl)-3-hydroxy-1-methylpyrrolidin-2-one]: in experiment [1], the IC50 was found to be 43 nM.
With `CN1CC[C@@](O)(C#Cc2cccc(-c3nc4c(N)nccc4[nH]3)c2)C1=O` [Example 59, (R)-3-[2-[3-(4-Amino-1H-imidazo[4,5-c]pyridin-2-yl)phenyl]ethynyl]-3-hydroxy-1-methyl-pyrrolidin-2-one], in experiment [2], the IC50 is more than 5000 nM.
Still for that read-out and setting: the value for `Cc1cc(C#C[C@]2(O)CCN(C)C2=O)cc(-c2nc3c(N)ncnc3s2)c1` [Example 153, (R)-3-((3-(7-Aminothiazolo[5,4-d]pyrimidin-2-yl)-5-methylphenyl)ethynyl)-3-hydroxy-1-methylpyrrolidin-2-one] was 47 nM; that for `[2H]c1nc(N)c2nc(-c3cccc(C#C[C@@]4(O)CCCN(C)C4=O)c3)ccc2n1` [Example 199, (S)-3-((3-(4-Aminopyrido[3,2-d]pyrimidin-6-yl-2-d)phenyl)ethynyl)-3-hydroxy-1-methylpiperidin-2-one] was more than 5000 nM; that for `CN1CC[C@@](O)(C#Cc2cccc(-c3ccc4ncncc4n3)c2)C1=O` [Example 223] was more than 5000 nM.
On to `COC1CN(c2ncnc3ccc(-c4cccc(C#C[C@]5(O)CCN(C)C5=O)c4)nc23)C1` [Example 230, (R)-3-Hydroxy-3-((3-(4-(3-methoxyazetidin-1-yl)pyrido[3,2-d]pyrimidin-6-yl)phenyl)ethynyl)-1-methylpyrrolidin-2-one], for which the IC50 in experiment [2] stood at 350 nM.
In the case of `CC(=O)Nc1ncnc2ccc(-c3cccc(C#C[C@]4(O)CCN(C)C4=O)c3)nc12` [Example 238, (R)—N-(6-(3-((3-Hydroxy-1-methyl-2-oxopyrrolidin-3-yl)ethynyl)phenyl)pyrido[3,2-d]pyrimidin-4-yl)acetamide], the IC50 in experiment [2] worked out at 73 nM.
Turning to `[2H]c1nc(NC(C)=O)c2nc(-c3cccc(C#C[C@]4(O)CCN(C)C4=O)c3)ccc2n1` [Example 259, (R)—N-(6-(3-((3-Hydroxy-1-methyl-2-oxopyrrolidin-3-yl)ethynyl)phenyl)pyrido[3,2-d]pyrimidin-4-yl-2-d)acetamide], in experiment [2], the IC50 amounted to 65 nM.
For `[2H]c1nc(N)c2nc(-c3cccc(C#C[C@]4(O)C[C@@H](C)N(C)C4=O)c3)ccc2n1` [Example 261, (3R,5R)-3-((3-(4-Aminopyrido[3,2-d]pyrimidin-6-yl-2-d)phenyl)ethynyl)-3-hydroxy-1,5-dimethylpyrrolidin-2-one], the IC50 in experiment [2] stood at 7.7 nM.
For the compound `[2H]c1nc(N)c2nc(-c3cccc(C#C[C@]4(O)C[C@H](C)N(C)C4=O)c3)ccc2n1` [Example 262, (3R,5S)-3-((3-(4-Aminopyrido[3,2-d]pyrimidin-6-yl-2-d)phenyl)ethynyl)-3-hydroxy-1,5-dimethylpyrrolidin-2-one], the IC50 in experiment [2] was found to be 220 nM.
In the case of `[2H]c1nc(N)c2nc(-c3cccc(C#C[C@@]4(O)C[C@H](C)N(C)C4=O)c3)ccc2n1` [Example 263, (3S,5S)-3-((3-(4-Aminopyrido[3,2-d]pyrimidin-6-yl-2-d)phenyl)ethynyl)-3-hydroxy-1,5-dimethylpyrrolidin-2-one], the IC50 in experiment [2] turned out to be 4350 nM.
As to `[2H]c1nc(N)c2nc(-c3cccc(C#C[C@@]4(O)C[C@@H](C)N(C)C4=O)c3)ccc2n1` [Example 264, (3S,5R)-3-((3-(4-Aminopyrido[3,2-d]pyrimidin-6-yl-2-d)phenyl)ethynyl)-3-hydroxy-1,5-dimethylpyrrolidin-2-one], in experiment [2], the IC50 was 660 nM.
As to `[2H]c1nc(NS(C)(=O)=O)c2nc(-c3cccc(C#C[C@]4(O)CCN(C)C4=O)c3)ccc2n1` [Example 269, (R)—N-(6-(3-((3-Hydroxy-1-methyl-2-oxopyrrolidin-3-yl)ethynyl)phenyl)pyrido[3,2-d]pyrimidin-4-yl-2-d)methanesulfonamide], the IC50 in experiment [2] came to 3850 nM.
With `CN1CC[C@@](O)(C#Cc2cccc(-c3cc(C(F)F)c4ncnc(N)c4n3)c2)C1=O` [Example 289, (R)-3-((3-(4-Amino-8-(difluoromethyl)pyrido[3,2-d]pyrimidin-6-yl)phenyl)ethynyl)-3-hydroxy-1-methylpyrrolidin-2-one], the IC50 in experiment [1] is 1.4 nM.
Regarding `CN1CC[C@@](O)(C#Cc2cccc(-c3cc(N4CC(C(F)(F)F)C4)c4ncnc(N)c4n3)c2)C1=O` [Example 315, (R)-3-[2-[3-[4-Amino-8-[3-(trifluoromethyl)azetidin-1-yl]pyrido[3,2-d]pyrimidin-6-yl]phenyl]ethynyl]-3-hydroxy-1-methyl-pyrrolidin-2-one], in experiment [1], the IC50 came out at 5 nM.
With `CN1CC[C@@](O)(C#Cc2cccc(-c3cc(NCC(F)(F)F)c4ncnc(N)c4n3)c2)C1=O` [Example 317, (R)-3-((3-(4-Amino-8-((2,2,2-trifluoroethyl)amino)pyrido[3,2-d]pyrimidin-6-yl)phenyl)ethynyl)-3-hydroxy-1-methylpyrrolidin-2-one], the IC50 in experiment [1] was 0.6 nM.
For `Cc1ccc(C#C[C@@]2(O)C(=O)N(C)[C@@H]3C[C@@H]32)cc1-c1nc2c(N)ncnc2s1` [Example 318, (1R,4R,5S)-4-((3-(7-Aminothiazolo[5,4-d]pyrimidin-2-yl)-4-methylphenyl)ethynyl)-4-hydroxy-2-methyl-2-azabicyclo[3.1.0]hexan-3-one], in experiment [1], the IC50 was found to be 1 nM.
Regarding `Cc1ccc(C#C[C@]2(O)C[C@@H](C)N(C)C2=O)cc1-c1nc2c(N)ncnc2s1` [Example 319, (3R,5R)-3-((3-(7-Aminothiazolo[5,4-d]pyrimidin-2-yl)-4-methylphenyl)ethynyl)-3-hydroxy-1,5-dimethylpyrrolidin-2-one], the IC50 in experiment [1] is 1.5 nM.
